One test concerns anesthetized rats. The test can be described thus: Diuresis in anesthetized rats. Type of test: in vivo, rat. To be noted: for urine flow rate (urine volume), diuretic response: versus baseline, FIG. 3. As to the method:
In one set of examples, cannulae were placed in the left and right ureters and femoral vein of anesthetized rats and urine was collected from the ureters. Analog peptides were administered via the femoral vein. Prior to infusing the analog peptides, saline was infused for 30 minutes, urine was collected for 6 five-minute baseline periods and urine volume was determined gravimetrically. Following these baseline collection periods, various analog peptides were infused for 30 or 60 minutes and urine volume was measured in five-minute periods during infusion and for 60 minutes following infusion (at which time rats were returned to saline). Data was examined by averaging urine flow rates for six five-minute baseline control periods immediately preceding infusion, and comparing values during and after administration of peptides with the "baseline" control values. Responses to peptides are thus evaluated and plotted as the percent of baseline control responses. Specific examples are shown in FIGS. 3A-H. The error bars at the beginning of the graphs represent baseline values +standard deviations. Responses to peptides that are substantially above baseline ±SD can thus be interpreted as being statistically significant increases.

Test [1] addresses T1, specific ANP receptor sites on BASM or BAE cells (Bos taurus, UniProt P10730).
T1 construct: specific receptor sites on BASM or BAE cells; endogenous in cells; host or cells: cultured BASM and BAE cells
T1 sequence (P10730 42-537): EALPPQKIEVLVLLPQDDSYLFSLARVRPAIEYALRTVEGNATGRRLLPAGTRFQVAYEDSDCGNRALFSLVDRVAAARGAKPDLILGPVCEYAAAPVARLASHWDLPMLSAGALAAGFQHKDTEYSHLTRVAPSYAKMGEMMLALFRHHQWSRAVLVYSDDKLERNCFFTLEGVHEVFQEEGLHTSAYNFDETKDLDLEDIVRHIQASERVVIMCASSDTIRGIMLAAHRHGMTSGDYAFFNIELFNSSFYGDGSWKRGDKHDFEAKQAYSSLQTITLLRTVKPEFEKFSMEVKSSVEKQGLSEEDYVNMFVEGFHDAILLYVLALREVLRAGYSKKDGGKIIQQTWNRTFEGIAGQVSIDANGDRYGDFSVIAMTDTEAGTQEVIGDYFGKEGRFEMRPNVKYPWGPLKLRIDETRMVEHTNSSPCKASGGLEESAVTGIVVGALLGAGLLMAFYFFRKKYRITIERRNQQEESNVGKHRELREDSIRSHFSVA
The test can be described thus: Competitive displacement receptor binding of (125I)-rANP(126-150) on cultured cells. On the set-up: species or system bovine. To be noted: for prevention of (125I)-rANP(126-150) binding to BASM cell-associated receptors (FIG. 2): increasing concentrations of unlabeled peptide, BASM cells. The source says: Analogous "competitive displacement" receptor binding assays are considered commonplace in the art for examining specific ligand-receptor interactions.
Assuming these ANP analogs act at one or more ANP receptor sites, then increased receptor affinity should reflect increased biological potency.

Where [2] appears, read: concentration of unlabeled peptide displacing 50% of maximal binding of 0.5 nM (125I)-rANP(126-150), BASM or BAE cells.

*1 amine or outer side, *2 acyl side, *3 side chain or, on linkers, in order; H or OH if unused. Where a SMILES comes first, the peptide text is derived from it. Bridges are numbered along the chain shown (N, C = ends). Where no end group is shown, it is not given here. [ ]: non-standard residue; d: D form. The star is where a group is joined. X1 = O=C(Cc1ccc(N[*:1])cc1)[*:2]; X6 = O=C(C(Br)c1ccccc1)*; BrAc = O=C(CBr)* A value given as a limit tells only on which side of the number the result lay.

The results in this text go back to patent US5047397A, “Linear analogs of atrial natriuretic peptides” (California Biotechnology Inc., priority 1988, dated 1991).

As to `CC[C@H](C)[C@@H]1NC(=O)[C@H](CCCNC(=N)N)NC(=O)[C@H](CC(=O)O)NC(=O)[C@H]([C@@H](C)CC)NC(=O)[C@H](CCCNC(=N)N)NC(=O)[C@@H](NC(=O)[C@H](CO)NC(=O)[C@H](CO)NC(=O)[C@@H](N)CCCNC(=N)N)CSSC[C@@H](C(=O)N[C@@H](CC(N)=O)C(=O)N[C@@H](CO)C(=O)N[C@@H](Cc2ccccc2)C(=O)N[C@@H](CCCNC(=N)N)C(=O)N[C@@H](Cc2ccc(O)cc2)C(=O)O)NC(=O)CNC(=O)[C@H](CC(C)C)NC(=O)CNC(=O)[C@H](CO)NC(=O)[C@H](CCC(N)=O)NC(=O)[C@H](C)NC(=O)CNC1=O` [AP25, R--S--S--C--R--I--D--R--I--G--A--Q--S--G--L--G--C--N--S--F--R--Y] (H-RSSCRIDRIGAQSGLGCNSFRY-OH; disulfide 4-17), the “urine flow rate (urine volume), diuretic response” value in the test on anesthetized rats (infused at 5 mcg/min via femoral vein) is “significantly increased”. The “Ki(app)” value in test [1] (setting [2]) is on record as 8.62 nM. The “prevention of (125I)-rANP(126-150) binding to BASM cell-associated receptors (FIG. 2)” value in test [1] is “effectively prevent”.
As to `CC[C@H](C)[C@@H]1NC(=O)[C@H](CCCNC(=N)N)NC(=O)[C@H](CC(=O)O)NC(=O)[C@H]([C@@H](C)CC)NC(=O)[C@H](CCCNC(=N)N)NC(=O)CNC(=O)CNC(=O)[C@H](Cc2ccccc2)NC(=O)[C@@H](N)CSSC[C@@H](C(N)=O)NC(=O)[C@H](C)NC(=O)CNC1=O` [AP37, C-F-G-G-R-I-D-R-I-G-A-C-NH2] (H-CFGGRIDRIGAC-NH2; disulfide 1-12), in the test on anesthetized rats (infused at 10 mcg/min via femoral vein), the “urine flow rate (urine volume), diuretic response” value is “significantly increased”. This compound yielded a Ki in test [1] (Table 2A, unit not given, in nM) of 13.40. In addition, the “prevention of (125I)-rANP(126-150) binding to BASM cell-associated receptors (FIG. 2)” value in test [1] is reported as “effectively prevent”.
For `CC[C@H](C)[C@@H]1NC(=O)[C@H](CCCNC(=N)N)NC(=O)[C@H](CC(=O)O)NC(=O)[C@H]([C@@H](C)CC)NC(=O)[C@@H](NC(=O)[C@H](CO)NC(=O)[C@H](CO)NC(=O)[C@@H](N)CCCNC(=N)N)CSSC[C@@H](C(=O)N[C@@H](CC(N)=O)C(=O)N[C@@H](CO)C(=O)N[C@@H](Cc2ccccc2)C(=O)N[C@@H](CCCNC(=N)N)C(=O)N[C@@H](Cc2ccc(O)cc2)C(=O)O)NC(=O)CNC(=O)[C@H](CC(C)C)NC(=O)CNC(=O)[C@H](CO)NC(=O)[C@H](CCC(N)=O)NC(=O)[C@H](C)NC(=O)CNC1=O` [AP54, R--S--S--C--I--D--R--I--G--A--Q--S--G--L--G--C--N--S--F--R--Y] (H-RSSCIDRIGAQSGLGCNSFRY-OH; disulfide 4-16), the “in vivo diuretic/natriuretic activity in rats, in words” value in the test with anesthetized rats (dose not stated) is “appears inactive in vivo”. Moreover, the “receptor binding / activity as judged by Ki, in words” value (shortened to “receptor binding / activity as judged”) in test [1] is “does not bind to the receptor”. The “Ki(app)” value in test [1] (setting [2]) was above 200 nM.
Take `CC[C@H](C)[C@H](NC(=O)[C@H](CCCNC(=N)N)NC(=O)[C@H](CC(=O)O)NC(=O)[C@@H](NC(=O)[C@H](CCCNC(=N)N)NC(=O)Cc1ccc(NC(=O)C(Br)c2ccccc2)cc1)[C@@H](C)CC)C(N)=O` (some centres unmarked) [AP818] (X6-[X1]RIDRI-NH2): in test [1] (setting [2]), the “Ki(app)” value stood at 20.5 nM.
Take `CC[C@H](C)[C@H](NC(=O)[C@H](CCCNC(=N)N)NC(=O)[C@H](CC(=O)O)NC(=O)[C@@H](NC(=O)[C@H](CCCNC(=N)N)NC(=O)Cc1ccc(NC(=O)[C@H](Cc2ccccc2)NC(=O)CBr)cc1)[C@@H](C)CC)C(N)=O` [AP819] (BrAc-F[X1]RIDRI-NH2): the “Ki(app)” value in test [1] (setting [2]) amounted to 3.8 nM.
Compound `CC[C@H](C)[C@H](NC(=O)[C@H](Cc1ccc(O)cc1)NC(=O)[C@@H](NC(=O)[C@H](CCCNC(=N)N)NC(=O)[C@@H](N)CC(=O)O)C(C)C)C(=O)N[C@@H](Cc1c[nH]cn1)C(=O)N1CCC[C@H]1C(=O)N[C@@H](Cc1ccccc1)C(=O)O` [angiotensin II, reference compound] had a Ki(app) in test [1] (specificity table, unrelated peptide hormones, unit inferred) above 500 nM.
As for “AFGGRIDRI-NH2 [AP103, A--F--G--G--R--I--D--R--I--NH2]”, the “Ki(app)” value in test [1] (setting [2]) came out at 12.42 nM.
Take “AFGGRIDRIG-NH2 [AP102, A--F--G--G--R--I--D--R--I--G--NH2]”: the “Ki(app)” value in test [1] (setting [2]) is on record as 14.04 nM.
As to “AFGGRIDRIGY-NH2 [AP176, A--F--G--G--R--I--D--R--I--G--Y--NH2]”, the “Ki(app)” value in test [1] (setting [2]) turned out to be 6.65 nM.
On to “FGGRIDRI-NH2 [AP119, F--G--G--R--I--D--R--I--NH2]”, for which, in test [1] (setting [2]), the “Ki(app)” value is on record as 8.9 nM.
On to “FGGRIDRIGA-NH2 [AP126, F--G--G--R--I--D--R--I--G--A--NH2]”, for which, in test [1] (setting [2]), the “Ki(app)” value is reported as 2.16 nM.
The same measure, in the same setting: next, “FGGRIDRIGAA-NH2 [AP104, F--G--G--R--I--D--R--I--G--A--A--NH2]”: 2.50 nM.
“GGRIDRIGAA-NH2 [AP105, G--G--R--I--D--R--I--G--A--A--NH2]”: the “receptor binding / activity as judged” value in test [1] is “do not”. Besides, the “Ki(app)” value in test [1] (setting [2]) is recorded as above 200 nM.
Take “RIDRIG-NH2 [AP125, R--I--D--R--I--G--NH2]”: the “receptor binding / activity as judged” value in test [1] is on record as “do not”. In test [1] (setting [2]), the “Ki(app)” value is given as above 200 nM.
On to “YAFGGRIDRIGA-NH2 [AP175, Y--A--F--G--G--R--I--D--R--I--G--A--NH2]”, for which the “Ki(app)” value in test [1] (setting [2]) is reported as 5.94 nM.
